{
  "source": "patent US20240408086A1",
  "about": "“USE OF LUVADAXISTAT FOR THE TREATMENT OF COGNITIVE IMPAIRMENT” (TAKEDA PHARMACEUTICAL COMPANY LIMITED, priority 2021, published 2024)",
  "key": {"Mouse": {"tested_on": "Mouse", "assay": "BALB/C social interaction", "assay_type": "in vivo", "parameters": "key: a + sign means efficacious; a − sign means not efficacious", "details": "for BALB/C social interaction (negative symptoms): 14-Day Once Daily (QD); for BALB/C social interaction (acute): Single Dose", "excerpt": "In Table 1, a + sign means efficacious, a − sign means not efficacious, and an empty cell indicates a dose was not tested."}, "D-serine in cerebellum": {"tested_on": "D-serine in cerebellum", "assay": "D-serine increase in cerebellum (6 hours)", "assay_type": "in vivo", "parameters": "key: a + sign means efficacious; a − sign means not efficacious", "details": "Mouse", "excerpt": "DAAO inhibition increases levels of D-serine, a co-agonist of the N-methyl-d-aspartate (NMDA) receptor. […] Increases in cerebellum D-serine levels may also influence distal regions of the brain (such as the hippocampus) or cortical regions, through a mechanism that remains to be elucidated. […] In Table 1, a + sign means efficacious, a − sign means not efficacious, and an empty cell indicates a dose was not tested."}, "mouse hippocampus": {"tested_on": "mouse hippocampus", "assay": "Hippocampal long-term potentiation (LTP) after acute and sub-chronic oral dosing", "assay_type": "in vivo, mice", "method": "In this study, hippocampal synaptic plasticity was evaluated using a well-established long-term potentiation (LTP) paradigm after acute and sub-chronic (14 days) dosing with Compound (I).\nWild-type mice aged 5-6 weeks (total of 97; n=5-8 per condition) were given acute or sub-chronic (14-day) oral doses of Compound (I) (from 0.001 mg/kg to 10 mg/kg, p.o.) or vehicle (1% Tween 80 in 0.5% methylcellulose). Hippocampal slices were harvested after 5 hours. Cerebellum and blood plasma were also obtained to measure D-serine levels achieved in the experimental animals.\nElectrophysiological recordings were obtained from a single hippocampal slice placed on the chamber and perfused with aCSF at a constant rate. Extracellular field excitatory postsynaptic potentials (fEPSPs) were recorded in the CA1 stratum radiatum using a glass micropipette filled with aCSF. fEPSPs were evoked by electrical stimulation of Schaffer collaterals/commissural pathway at 0.1 Hz with a glass stimulating electrode placed in the stratum radiatum.\nTo test the effect of Compound (I) on basal synaptic transmission, Input/Output […] curves were constructed at the beginning of the experiment. The slope of fEPSPs was measured and plotted against different intensities of stimulation (from 0 to 100 μA). Long-term potentiation (LTP) was induced by a theta burst stimulation protocol (10 bursts of 4 pulses at 100 Hz, with 200 ms between bursts) at baseline stimulation intensity. Following this conditioning stimulus, a 1-hour test period was recorded where responses were again elicited by a single stimulation every 10 seconds (0.1 Hz) at the same stimulus intensity."}, "[1]": {"tested_on": "adult patients with persistent negative symptoms of schizophrenia", "assay_type": "in vivo, human", "details": "for PANSS NSFS, LS mean change from baseline to Week 12: placebo −3.1", "excerpt": "Compound (I) was orally administered in the form of a tablet once daily for up to 14 weeks. Compound (I) placebo-matching tablets were similarly orally administered once daily for up to 14 weeks. The treatment group remained undisclosed to the participant and study doctor/site personnel during the study unless there was an urgent medical need.\nThe primary endpoint evaluated was the change in negative symptoms, measured as the 12-week change from baseline in the Positive and Negative Syndrome Scale-Negative Symptom Factor Score (PANSS NSFS)."}, "[2]": {"tested_on": "patients with schizophrenia", "assay": "Phase 1b crossover study: auditory steady state response (ASSR) gamma band power", "assay_type": "in vivo, human", "excerpt": "(§1) NCT03359785 was a randomized, double-blind, placebo-controlled cross-over Phase 1b clinical trial in schizophrenia patients at a single site to evaluate PD effects, safety, tolerability, and pharmacokinetics of multiple oral doses of Compound (I). The objective of the study was to assess pharmacodynamic (PD) biomarkers of Compound (I) on measures related to cerebellar circuitry function and NMDA pharmacology that are known to be affected in schizophrenia.\nEvoked potentials in the electroencephalogram were also tested to assess the impact of multiple oral doses of Compound (I) on NMDA-sensitive physiological responses that are affected in schizophrenia. Specifically, mismatch negativity (MMN), auditory steady state response (ASSR), and P300 were measured at baseline and following 8 days of treatment in both periods.\nASSR are evoked oscillatory responses that are entrained to the frequency and phase of temporally modulated stimuli. Individuals with schizophrenia experience subjective sensory anomalies and objective deficits on assessment of sensory function. These deficits can be produced by abnormal signaling in the sensory pathways and sensory cortex or by later-stage disturbances in the cognitive processing of such inputs. ASSR can be used to assess the integrity of sensory pathways including cortical processing. ASSR was measured at midline central electrode (Cz) of EEG.\nAll endpoints were analyzed as change from baseline compared to placebo within the same subjects. Statistical comparisons were conducted with an ANOVA model, with treatment sequence, period, and treatment as fixed effects, and subject as a random effect. As a supplementary analysis, an analysis of covariance model (ANCOVA) was applied to the primary endpoint with (period) baseline as a covariate, treatment sequence, period, treatment effect and baseline-by-treatment as fixed effects, and subject as a random effect."}, "[3]": {"tested_on": "patients with schizophrenia", "assay": "Phase 1b crossover study: safety and tolerability", "assay_type": "in vivo, human", "details": "50 or 500 mg for 8 consecutive days", "excerpt": "as §1\nSafety objectives included the incidence of treatment-emergent adverse events (TEAEs), laboratory tests, vital signs, and electrocardiogram (ECG) assessments."}, "[4]": {"tested_on": "scopolamine-induced EBC deficits", "details": "preclinical studies; see Example 2 of WO 2015/132608; cited from earlier work"}},
  "note": "Where two headings read alike, the source gives them in different places.",
  "data": [
    {"smiles": "O=c1[nH]nc(CCc2ccc(C(F)(F)F)cc2)cc1O", "note": "[Compound (I), luvadaxistat]", "values": [
      {"measurement": "BALB/C social interaction (negative symptoms)", "setting": "Mouse; 0.001 mg/kg", "result": "−"},
      {"measurement": "BALB/C social interaction (negative symptoms)", "setting": "Mouse; 0.003 mg/kg", "result": "−"},
      {"measurement": "BALB/C social interaction (negative symptoms)", "setting": "Mouse; 0.01 mg/kg", "result": "+"},
      {"measurement": "BALB/C social interaction (negative symptoms)", "setting": "Mouse; 0.03 mg/kg", "result": "+"},
      {"measurement": "BALB/C social interaction (negative symptoms)", "setting": "Mouse; 0.1 mg/kg", "result": "+"},
      {"measurement": "BALB/C social interaction (negative symptoms)", "setting": "Mouse; 0.3 mg/kg", "result": "+"},
      {"measurement": "BALB/C social interaction (negative symptoms)", "setting": "Mouse; 1 mg/kg", "result": "+"},
      {"measurement": "BALB/C social interaction (negative symptoms)", "setting": "Mouse; 3 mg/kg", "result": "+"},
      {"measurement": "BALB/C social interaction (acute)", "setting": "Mouse; 0.3 mg/kg", "result": "−"},
      {"measurement": "BALB/C social interaction (acute)", "setting": "Mouse; 1 mg/kg", "result": "+"},
      {"measurement": "BALB/C social interaction (acute)", "setting": "Mouse; 3 mg/kg", "result": "+"},
      {"measurement": "D-serine increase in cerebellum (6 hours)", "setting": "D-serine in cerebellum; 14-Day Once Daily (QD), 0.03 mg/kg", "result": "−"},
      {"measurement": "D-serine increase in cerebellum (6 hours)", "setting": "D-serine in cerebellum; 14-Day Once Daily (QD), 0.1 mg/kg", "result": "−"},
      {"measurement": "D-serine increase in cerebellum (6 hours)", "setting": "D-serine in cerebellum; 14-Day Once Daily (QD), 0.3 mg/kg", "result": "+"},
      {"measurement": "D-serine increase in cerebellum (6 hours)", "setting": "D-serine in cerebellum; 14-Day Once Daily (QD), 1 mg/kg", "result": "+"},
      {"measurement": "D-serine increase in cerebellum (6 hours)", "setting": "D-serine in cerebellum; 14-Day Once Daily (QD), 3 mg/kg", "result": "+"},
      {"measurement": "D-serine increase in cerebellum (6 hours)", "setting": "D-serine in cerebellum; Single Dose, 0.3 mg/kg", "result": "+"},
      {"measurement": "D-serine increase in cerebellum (6 hours)", "setting": "D-serine in cerebellum; Single Dose, 1 mg/kg", "result": "+"},
      {"measurement": "D-serine increase in cerebellum (6 hours)", "setting": "D-serine in cerebellum; Single Dose, 3 mg/kg", "result": "+"},
      {"measurement": "D-serine increase in cerebellum (6 hours)", "setting": "D-serine in cerebellum; Single Dose, 10 mg/kg", "result": "+"},
      {"measurement": "LTP in the mouse hippocampus", "setting": "mouse hippocampus; single oral doses vs vehicle, one-way ANOVA", "result": "did not significantly affect LTP"},
      {"measurement": "LTP in the mouse hippocampus", "setting": "mouse hippocampus; sub-chronic (14-day) oral dose 0.001 mg/kg, p<0.05 vs vehicle", "result": "increased LTP"},
      {"measurement": "LTP in the mouse hippocampus", "setting": "mouse hippocampus; sub-chronic (14-day) oral dose 0.01 mg/kg, p<0.05 vs vehicle", "result": "increased LTP"},
      {"measurement": "LTP in the mouse hippocampus", "setting": "mouse hippocampus; sub-chronic (14-day) oral dose 0.1 mg/kg, p<0.05 vs vehicle", "result": "decreased LTP"},
      {"measurement": "LTP in the mouse hippocampus", "setting": "mouse hippocampus; sub-chronic (14-day) oral dose 10 mg/kg, p<0.05 vs vehicle", "result": "decreased LTP"},
      {"measurement": "PANSS NSFS, LS mean change from baseline to Week 12", "setting": "[1]; 50 mg once daily, p=0.426 vs placebo", "result": "−3.3"},
      {"measurement": "Improvement in PANSS NSFS versus placebo", "setting": "[1]; 50 mg, 125 mg, or 500 mg at Week 12", "result": "no significant improvements"},
      {"measurement": "PANSS NSFS, LS mean change from baseline to Week 12", "setting": "[1]; 125 mg once daily, p=0.362 vs placebo", "result": "−3.4"},
      {"measurement": "PANSS NSFS, LS mean change from baseline to Week 12", "setting": "[1]; 500 mg once daily, p=0.808 vs placebo", "result": "−2.5"},
      {"measurement": "ASSR gamma power, effect size vs placebo", "setting": "[2]; 50 mg for 8 days", "result": 0.575},
      {"measurement": "ASSR gamma power, change from baseline", "setting": "[2]; 50 mg for 8 days, placebo −16.282, p=0.056", "result": 2.135},
      {"measurement": "ASSR gamma power, effect size vs placebo", "setting": "[2]; 500 mg for 8 days", "result": 0.003},
      {"measurement": "ASSR gamma power, change from baseline", "setting": "[2]; 500 mg for 8 days, placebo 9.203, p=0.495", "result": 9.411},
      {"measurement": "Deaths, serious adverse events, TEAEs leading to discontinuation of study drug", "setting": "[3]", "result": "no deaths, serious adverse events (AEs), or TEAEs leading to discontinuation of study drug"},
      {"measurement": "Tolerability in the Phase 1b study", "setting": "[3]", "result": "generally well tolerated"},
      {"measurement": "Reversal of scopolamine-induced EBC deficits", "setting": "[4]", "result": "robust effects in reversing scopolamine-induced EBC deficits"}
    ]}
  ]
}
